Results on 24 compounds are retold here after patent US10351576B2, “Fused tricyclic pyrazole derivatives useful for farnesoid X receptors” (NOVARTIS AG, priority 2015, dated 2019).

SMILES strings stand for the structures.

The test has as its target T1, human Farnesoid X Receptor (FXR) ligand binding domain (GST-FXR LBD) (Homo sapiens, UniProt Q96RI1).
T1 construct: purchased Invitrogen
T1 sequence (Q96RI1 193-472 isoform Q96RI1-2): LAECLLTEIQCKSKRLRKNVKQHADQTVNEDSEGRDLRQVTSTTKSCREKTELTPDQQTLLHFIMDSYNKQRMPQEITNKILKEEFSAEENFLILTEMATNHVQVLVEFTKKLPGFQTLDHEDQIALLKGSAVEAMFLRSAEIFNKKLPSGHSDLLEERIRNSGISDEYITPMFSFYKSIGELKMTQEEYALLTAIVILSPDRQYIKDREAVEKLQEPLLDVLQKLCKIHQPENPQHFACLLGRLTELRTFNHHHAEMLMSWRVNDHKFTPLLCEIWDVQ
Nature of the test: Human GST-FXR LBD co-activator interaction assay (FXR HTRF assay). In kind it is biochemical. To be noted: ligand-dependent interaction of GST-FXR LBD with biotin-labeled SRC-1 peptide, response relative to GW4064, read-out: FXR coactivator interaction assay (HTRF). The source says:
Human GST-FXR LBD Co-Activator Interaction Assay
The FXR HTRF assay is a biochemical assay measuring the interaction between FXR and a coactivator protein (SRC1). The ligand-induced interaction with a coactivator protein is a critical step in transcriptional activation by FXR. Thus, this is an assay designed to measure FXR agonist activity of the test compounds.
Recombinant human Farnesoid X Receptor (FXR) ligand binding domain (amino acids 193-472) fused to glutathione S-transferase (GST) purified protein (GST-FXR LBD) was purchased (Invitrogen). The ligand-dependent interaction between GST-FXR LBD and a peptide derived from Steroid Receptor Coactivator-1 (SRC-1) was monitored by Fluorescence Resonance Energy Transfer (FRET). […] Test compounds (in DMSO solution) and detection reagents (anti-GST-Cryptate labeled antibody and Streptavidin-XL665 conjugate; CisBio) were added in assay buffer containing 50 mM KF. Plates are incubated at room temperature in the dark for 2.5 hrs before reading on an Envision (PerkinElmer) at 665 nm and 590 nm. The HTRF assay results were calculated from the 665 nm/590 nm ratio (ratio=(A665 nm/A590 nm)×10^4) and expressed in Delta F %=(Ratiosample−Rationegative)/Rationegative×100.
A negative control (without Streptavidin-XL665) was run with each assay and represented the background fluorescence. A reference FXR agonist, (E)-3-(2-chloro-4-((3-(2,6-dichlorophenyl)-5-isopropylisoxazol-4-yl)methoxy)styryl)benzoic acid (Compound GW4064), was included in each experiment as positive control. The efficacy of each test compound was compared to that of GW4064. At each concentration, the relative activity of the test compound was expressed as Response %=(Rsample−RDMSO)/(Rpositive−RDMSO), where Rsample is the HTRF response (expressed in Delta F %) for the test compound, Rpositive is the maximal response for GW4064 at saturating concentrations, and RDMSO is the response for DMSO control. The EC50 values were calculated using GraphPad Prism (GraphPad Software) using non-linear regression curve fit (log(agonist) vs. response—variable slope (four parameters)).
As for `Cn1nc(C(=O)N(CC(=O)NC2CC2)Cc2cccc(F)c2F)c2c1-c1cc(Cl)ccc1OC2` [Compound 22, 2-(1-{8-chloro-1-methyl-1H,4H-chromeno[4,3-c]pyrazol-3-yl}-N-[(2,3-difluorophenyl)methyl]formamido)-N-cyclopropylacetamide], the EC50 is 60 nM.
Then `Cn1nc(C(=O)N(CC(=O)NC2CC2(F)F)Cc2ccccc2F)c2c1-c1cc(Cl)ccc1OC2` (stereo not drawn) [Compound 23, 2-(1-{8-chloro-1-methyl-1H,4H-chromeno[4,3-c]pyrazol-3-yl}-N-[(2-fluorophenyl)methyl]formamido)-N-(2,2-difluorocyclopropyl)acetamide], with 87 nM; and `CC(C)NC(=O)CN(Cc1cc(F)cc(F)c1)C(=O)c1nn(C)c2c1COc1ccc(Cl)cc1-2` [Compound 24, 2-(1-{8-chloro-1-methyl-1H,4H-chromeno[4,3-c]pyrazol-3-yl}-N-[(3,5-difluorophenyl)methyl]formamido)-N-(propan-2-yl)acetamide], with 78 nM.
In the case of `CC(C)NC(=O)CN(Cc1ccccc1)C(=O)c1nn(C)c2c1COc1ccc(Br)cc1-2` [Compound 25, 2-(N-benzyl-1-{8-bromo-1-methyl-1H,4H-chromeno[4,3-c]pyrazol-3-yl}formamido)-N (propan-2-yl)acetamide], the EC50 was found to be 32 nM.
The result for `CC(C)NC(=O)CN(Cc1cc(F)ccc1F)C(=O)c1nn(C)c2c1COc1ccc(Cl)cc1-2` [Compound 26, 2-(1-{8-chloro-1-methyl-1H,4H-chromeno[4,3-c]pyrazol-3-yl}-N-[(2,5-difluorophenyl)methyl]formamido)-N-(propan-2-yl)acetamide] reads 84 nM; that for `Cn1nc(C(=O)N(CC(=O)NC2CC2)Cc2cccc(F)c2)c2c1-c1cc(Cl)ccc1OC2` [Compound 27, 2-(1-{8-chloro-1-methyl-1H,4H-chromeno[4,3-c]pyrazol-3-yl}-N-[(3-fluorophenyl)methyl]formamido)-N-cyclopropylacetamide], 61 nM.
As to `CC(C)NC(=O)CN(Cc1cccc(F)c1)C(=O)c1nn(C)c2c1COc1ccc(Br)cc1-2` [Compound 28, 2-(1-{8-bromo-1-methyl-1H,4H-chromeno[4,3-c]pyrazol-3-yl}-N-[(3-fluorophenyl)methyl]formamido)-N-(propan-2-yl)acetamide], the EC50 came to 36 nM.
Consider `CC(C)NC(=O)CN(Cc1ccccc1F)C(=O)c1nn(C)c2c1COc1ccc(Cl)cc1-2` [Compound 29, 2-(1-{8-chloro-1-methyl-1H,4H-chromeno[4,3-c]pyrazol-3-yl}-N-[(2-fluorophenyl)methyl]formamido)-N-(propan-2-yl)acetamide], for which the EC50 is 197 nM.
For the compound `Cn1nc(C(=O)N(CC(=O)NC(C)(C)C)Cc2ccccc2F)c2c1-c1cc(Cl)ccc1OC2` [Compound 30, N-tert-butyl-2-(1-{8-chloro-1-methyl-1H,4H-chromeno[4,3-c]pyrazol-3-yl}-N-[(2-fluorophenyl)methyl]formamido)acetamide], the EC50 came out at 190 nM.
With `Cn1nc(C(=O)N(CC(=O)NCC2CCCO2)Cc2ccccc2F)c2c1-c1cc(Cl)ccc1OC2` (stereo not drawn) [Compound 31, 2-(1-{8-chloro-1-methyl-1H,4H-chromeno[4,3-c]pyrazol-3-yl}-N-[(2-fluorophenyl)methyl]formamido)-N-(oxolan-2-ylmethyl)acetamide], the EC50 turned out to be 124 nM.
Regarding `Cn1nc(C(=O)N(CC(=O)NCC2CCCOC2)Cc2ccccc2F)c2c1-c1cc(Cl)ccc1OC2` (stereo not drawn) [Compound 32, 2-(1-{8-chloro-1-methyl-1H,4H-chromeno[4,3-c]pyrazol-3-yl}-N-[(2-fluorophenyl)methyl]formamido)-N-(oxan-3-ylmethyl)acetamide], the EC50 worked out at 376 nM.
`Cn1nc(C(=O)N(CC(=O)NCCF)Cc2cccc(F)c2F)c2c1-c1cc(Cl)ccc1OC2` [Compound 33, 2-(1-{8-chloro-1-methyl-1H,4H-chromeno[4,3-c]pyrazol-3-yl}-N-[(2,3-difluorophenyl)methyl]formamido)-N-(2-fluoroethyl)acetamide]: the EC50 was determined as 62 nM.
For `CNC(=O)CN(Cc1ccccc1)C(=O)c1nn(C)c2c1COc1ccc(Br)cc1-2` [Compound 34, 2-(N-benzyl-1-{8-bromo-1-methyl-1H,4H-chromeno[4,3-c]pyrazol-3-yl}formamido)-N methylacetamide], the EC50 was found to be 193 nM.
As for `CC(C)NC(=O)CN(Cc1c(F)cccc1F)C(=O)c1nn(C)c2c1COc1ccc(Cl)cc1-2` [Compound 35, 2-(1-{8-chloro-1-methyl-1H,4H-chromeno[4,3-c]pyrazol-3-yl}-N-[(2,6-difluorophenyl)methyl]formamido)-N-(propan-2-yl)acetamide], the EC50 amounted to 366 nM.
In the case of `Cn1nc(C(=O)N(CC(=O)NC2CCS(=O)(=O)C2)Cc2cccc(F)c2)c2c1-c1cc(Cl)ccc1OC2` (stereo not drawn) [Compound 36, 8-chloro-N-(2-((1,1-dioxidotetrahydrothiophen-3-yl)amino)-2-oxoethyl)-N-(3-fluorobenzyl)-1-methyl-1,4-dihydrochromeno[4,3-c]pyrazole-3-carboxamide], the EC50 amounted to 99 nM.
Regarding `CNC(=O)c1ccc(NC(=O)CN(Cc2ccccc2F)C(=O)c2nn(C)c3c2COc2ccc(Cl)cc2-3)cc1` [Compound 37, 4-[2-(1-{8-chloro-1-methyl-1H,4H-chromeno[4,3-c]pyrazol-3-yl}-N-[(2-fluorophenyl)methyl]formamido)acetamido]-N-methylbenzamide], the EC50 turned out to be 192 nM.
`Cn1nc(C(=O)N(CC(=O)NC2CCC(O)CC2)Cc2ccccc2F)c2c1-c1cc(Cl)ccc1OC2` (stereo not drawn) [Compound 38, 2-(1-{8-chloro-1-methyl-1H,4H-chromeno[4,3-c]pyrazol-3-yl}-N-[(2-fluorophenyl)methyl]formamido)-N-(4-hydroxycyclohexyl)acetamide]: the EC50 is 717 nM.
The result for `Cn1nc(C(=O)N(CC(=O)NC2CCS(=O)(=O)C2)Cc2ccccc2F)c2c1-c1cc(Cl)ccc1OC2` (stereo not drawn) [Compound 39, 8-chloro-N-(2-((1,1-dioxidotetrahydrothiophen-3-yl)amino)-2-oxoethyl)-N-(2-fluorobenzyl)-1-methyl-1,4-dihydrochromeno[4,3-c]pyrazole-3-carboxamide] reads 482 nM; that for `Cn1nc(C(=O)N(CC(=O)NCC2CC2)CC2CCOCC2)c2c1-c1cc(Cl)ccc1OC2` [Compound 40, 2-(1-{8-chloro-1-methyl-1H,4H-chromeno[4,3-c]pyrazol-3-yl}-N-(oxan-4-ylmethyl)formamido)-N-(cyclopropylmethyl)acetamide], 608 nM.
As for `Cn1nccc1NC(=O)CN(Cc1ccccc1F)C(=O)c1nn(C)c2c1COc1ccc(Cl)cc1-2` [Compound 41, 2-(1-{8-chloro-1-methyl-1H,4H-chromeno[4,3-c]pyrazol-3-yl}-N-[(2-fluorophenyl)methyl]formamido)-N-(1-methyl-1H-pyrazol-5-yl)acetamide], the EC50 was determined as 1610 nM.
As to `CC(C)NC(=O)CN(Cc1cccc(F)c1F)C(=O)c1nn(C)c2c1COc1ccc(Cl)cc1-2` [Compound 42, 2-(1-{8-chloro-1-methyl-1H,4H-chromeno[4,3-c]pyrazol-3-yl}-N-[(2,3-difluorophenyl)methyl]formamido)-N-(propan-2-yl)acetamide], the EC50 was determined as 631 nM.
Then `Cn1nc(C(=O)N(CC(=O)NC(C)(C)c2ccccc2)Cc2ccccc2F)c2c1-c1cc(Cl)ccc1OC2` [Compound 43, 2-(1-{8-chloro-1-methyl-1H,4H-chromeno[4,3-c]pyrazol-3-yl}-N-[(2-fluorophenyl)methyl]formamido)-N-(2-phenylpropan-2-yl)acetamide], with 1700 nM.
Then `Cn1nc(C(=O)N(CC(=O)NCC(O)C(F)(F)F)Cc2ccccc2F)c2c1-c1cc(Cl)ccc1OC2` (stereo not drawn) [Compound 44, 8-chloro-N-(2-fluorobenzyl)-1-methyl-N-(2-oxo-2-((3,3,3-trifluoro-2-hydroxypropyl)amino)ethyl)-1,4-dihydrochromeno[4,3-c]pyrazole-3-carboxamide], with 8 nM.
For `Cn1nc(C(=O)N(CC(=O)NCC(C)(O)C(F)(F)F)Cc2ccccc2F)c2c1-c1cc(Cl)ccc1OC2` (stereo not drawn) [Compound 45, 2-(1-{8-chloro-1-methyl-1H,4H-chromeno[4,3-c]pyrazol-3-yl}-N-[(2-fluorophenyl)methyl]formamido)-N-(3,3,3-trifluoro-2-hydroxy-2-methylpropyl)acetamide], the EC50 came out at 33 nM.
